How the values were obtained:
HeLa cells = format: cell-based; conditions: BCN-C10 pretreatment (200 μM, 1 h), complex 40 μM
Description: The results particularly highlight the potential of the luminogenic transition metal-based polypyridyl complexes of the present invention for bioorthogonal labeling. […] Importantly, although the cellular uptake of complex 2b was substantially higher, it was much less cytotoxic than complex 4b toward the pretreated cells. […] The results also highlight the potential therapeutic use of intracellular bioorthogonal coupling reactions in activating the cytotoxicity of metallo drugs.
For determining the cytotoxicity of complexes 1 b 5b, HeLa cells were seeded in a 96-well flat-bottomed microplate (about 10,000 cells well^−1) in growth medium (100 μL) and incubated at 37° C. under a 5% CO2 atmosphere for 24 h. The cells were then incubated in either blank medium or growth medium/DMSO (99:1, v/v) (100 μL) containing BCN-C10 (200 μM) in the dark at 37° C. under a 5% CO2 atmosphere for 1 h. The medium was then removed, the cell layer was washed with PBS, and further incubated in growth medium/DMSO (99:1, v/v) (100 μL) containing the ruthenium(II) complexes (40 μM) in the dark at 37° C. under a 5% CO2 atmosphere for 6, 12, or 24 h. Wells containing untreated cells were used as blank control. The microplate was incubated at 37° C. under a 5% CO2 atmosphere for another 4 h. The growth medium was then removed, and DMSO (200 μL) was added to each well. The microplate was further incubated for 15 min. The absorbance of the solutions at 570 nm was measured with a SPECTRAmax 340 microplate reader.

[1] = aerated aqueous solution, λex=455 nm; cited from earlier work
[2] = SPANC reaction kinetics with BCN—OH by UV/Vis absorption spectroscopy; format: physicochemical; conditions: reaction with BCN—OH in MeOH at 298 K
Description: The reactivity of the iridium(III) and ruthenium(II) pyridyl complexes toward a strained alkyne derivative BCN—OH in MeOH at 298 K was studied. The second-order rate constants (k2) of the strain-promoted alkyne-nitrone cycloaddition (SPANC) reaction of complexes 1a-5b are shown in Tables 3 and 4, respectively. The k2 values of the iridium(III) complexes 1a, 2a and 3a and the ruthenium(II) complexes 1b, 2b, 3b, 4b, and 5b were determined to be 0.116-0.238 and 0.078-3.06 M^−1 s^−1, respectively, which are about 1.95-76.5 times that of the free ligand bpy-nitrone-Me (k2=0.040 M^−1 s^−1). This is attributed to the electron-withdrawing effects of the positively-charged metal centers. […] The accelerated reaction kinetics is assumed to originate from the presence of the more electron-withdrawing phenyl ring at the N-position of the nitrone moiety. Thus, the accelerated reaction kinetics render complexes 1a-5b highly advantageous bioorthogonal probes for biomolecules modified with a strained alkyne moiety.
More specifically, the SPANC reaction kinetics of complexes 1a 5b was studied by UV/Ms absorption spectroscopy. For the ligand bpy-nitrone-Me and the iridium(III) complexes 1a-3a, the k2 values were measured under pseudo first order conditions with a 25- to 100-fold excess of BCN—OH in MeOH at 298 K. The reaction process was followed by monitoring the exponential decay of the absorbance at 306-342 nm upon addition of BCN—OH. The final concentrations of the nitrone compounds were 10 μM and those of BCN—OH ranged from 0.25 to 1.0 mM. For the ruthenium(II) complexes 1b-5b, the k2 values were determined under pseudo first order conditions with a 50- to 200-fold excess of BCN—OH in MeOH at 298 K. The reaction process was monitored by following the exponential decay of the absorbance at 329 nm. The final concentrations of the complexes were 10 μM and those of BCN—OH ranged from 0.5 to 2.0 mM. The data were fitted to a single-exponential equation to give the observed rate constants (kobs), which were plotted against the concentrations of BCN—OH to obtain the k2 from the slope of the plots.

Cc1ccnc(-c2cc(/C=[N+](/C)[O-])ccn2)c1.F[P-](F)(F)(F)(F)F.F[P-](F)(F)(F)(F)F.[Ru+2].c1ccc(-c2ccccn2)nc1.c1ccc(-c2ccccn2)nc1 [Complex 1b, [Ru(bpy)2(bpy-nitrone-Me)](PF6)2]
Cell viability with BCN-C10 pretreatment (HeLa cells): maintained good biocompatibility

[Cl][Ru][Cl].c1ccc(-c2ccccn2)nc1.c1ccc(-c2ccccn2)nc1.c1ccc(-c2ccccn2)nc1 [[Ru(bpy)3]Cl2]
ϕem of standard solution [1]: 0.028

Cc1ccnc(-c2cc(C=[N+](C)[O-])ccn2)c1 [bpy-nitrone-Me, 4-((Methyl(oxido)imino)methyl)-4′-methyl-2,2′-bipyridine]
Second-order rate constants (k2) [2]: 0.040 M⁻¹ s⁻¹
